Assay [1] has as its target CK1ε (Homo sapiens, UniProt P49674). Kind of assay: CK1ε kinase activity assay (Caliper, FAM-labelled polypeptide). It counts as biochemical. As to the method:
The in-vitro assay of inhibitory activity of the compound herein against CK1ε kinase was:
(1) preparation of 1× kinase basic buffer and stop buffer: • 1×kinase basic buffer: 50 mM HEPES, pH 7.5; and 0.0015% Brij-35; • stop buffer: 100 mM HEPES, pH 7.5; 0.015% Brij-35; 0.2% Coating Reagent #3; and 50 mM EDTA.
(2) preparation of the test compound: • a 50× (“n×” represents dilution factor, same hereafter) stock solution of the compound with DMSO (10 mM, DMSO) to obtain stock solution I for use; […] of stock solution I was placed in a 96-well plate, each compound sample was diluted by 5-fold serial dilution till 10 concentrations was obtained while ensuring 10 μl of drug solution in each well; meanwhile, 100 μl of DMSO was used as a blank control group and a negative control group without enzyme substrate; • a separate 96-well plate was prepared, and to 10 μl of the above compound,
90 μl of 1× kinase foundation buffer was added, mixed well for 10 min to obtain a mixture.

In assay [2] the test system is OCI-LY10 cells. Kind of assay: In-vitro anti-tumor activity, OCI-LY10 cells, CCK-8. Particulars: Homo sapiens; OCI-LY10, 72h, CCK-8; read-out: IC50. In kind it is cell-based, human. As to the method:
The in-vitro anti-tumor activities of the synthesized compounds were determined using a diffuse large B-cell lymphoma (OCI-LY10) cell strain:
Drug preparation method: The drug was dissolved in DMSO to make a stock solution of 10 mM and diluted in a certain ratio to obtain 7 different concentrations (test concentration: 100×).
In vitro culture of tumor cells: The selected OCI-LY10 cells were incubated with a medium of IMDM+fetal bovine serum in a 5% CO2 cell culture incubator at 37° C., and were passaged when the cell density grew to 70-90% (adherent cells were passaged after digestion with Duck's EDTA) for later experiments as needed. Four thousand cells/200 μl/well were seeded in a 96-well plate and incubated overnight in a 5% CO2 cell incubator at 37° C. Two μl of the compounds were dispensed in each well at final concentrations of […], and incubation was performed together for 72h in a 5% CO2 cell incubator at 37° C. with DMSO (2%) as control. After 72h, 20 μl of CCK-8 solution was added and the plate was placed in a 5% CO2 cell culture incubator at 37° C. for 4h. Wells with the corresponding amounts of cell culture medium and CCK-8 solution but without cells were used as blank controls. The absorbance (OD values) was measured at 450 nm using an enzyme marker, and the obtained data were used to calculate the IC50.

The values that follow come from patent US20220251092A1, “CASEIN KINASE 1EPSILON INHIBITOR, PHARMACEUTICAL COMPOSITION AND APPLICATION THEREOF” (HANGZHOU HEALZEN THERAPEUTICS CO., LTD., priority 2019, published 2022).

Structures are written as SMILES.

Chain of CK1ε (P49674 whole entry): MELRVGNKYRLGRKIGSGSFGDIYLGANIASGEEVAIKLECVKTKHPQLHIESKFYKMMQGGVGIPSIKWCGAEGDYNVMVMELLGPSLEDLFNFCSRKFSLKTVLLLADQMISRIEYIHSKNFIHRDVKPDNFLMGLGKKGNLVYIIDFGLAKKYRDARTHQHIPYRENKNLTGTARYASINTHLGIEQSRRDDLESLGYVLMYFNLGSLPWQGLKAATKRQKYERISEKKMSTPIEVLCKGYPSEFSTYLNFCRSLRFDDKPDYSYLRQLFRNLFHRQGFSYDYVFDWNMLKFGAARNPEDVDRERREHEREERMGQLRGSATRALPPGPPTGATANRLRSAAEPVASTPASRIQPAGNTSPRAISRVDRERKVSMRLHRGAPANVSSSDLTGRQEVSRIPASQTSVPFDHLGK

One may read the IC50 as the midpoint of a concentration-inhibition curve. `CC(C)Oc1ccc(-c2nn(C(C)c3nc4ccccc4c(=O)n3-c3ccccc3)c3ncnc(N)c23)cc1F` (centres unmarked) [Compound A, reference compound]: half-maximal inhibition in assay [1] (IC50) required 1730 nM.

Take `CC(c1nc2ccccc2c(=O)n1-c1ccccc1)n1nc(-c2ccc(OC3CC3)c(F)c2)c2c(N)ncnc21` (centres unmarked) [Compound B, reference compound]: the IC50 in assay [1] amounted to 2710 nM. On to `COc1ccc(-c2nn(C(C)c3nc4cccc(Cl)c4c(=O)n3-c3ccccc3)c3ncnc(N)c23)cc1F` (centres unmarked) [Compound C, reference compound], for which the concentration for half-maximal inhibition (IC50) in assay [1] amounted to 701 nM; in assay [2] it was 2700 nM. On the same counts, the results for `CC(C)Oc1ccc(-c2nn(C(C)c3nc4cccc(F)c4c(=O)n3-c3ccccc3)c3ncnc(N)c23)cc1F` (centres unmarked) [Compound D, reference compound] are 1290 nM and 746 nM.

Take `COc1ccc(-c2nn([C@H](C)c3nc4ccccc4c(=O)n3-c3ccccc3)c3ncnc(N)c23)c(F)c1F` [II-A-1b, (R)-2-(1-(4-amino-3-(2,3-difluoro-4-methoxyphenyl)-1H-pyrazolo[3,4-d]pyrimidin-1-yl)ethyl)-3-phenylquinazolin-4(3H)-one]: in assay [1], half-maximal inhibition (IC50) was put at 484 nM. Regarding `CC(C)Oc1ccc(-c2nn(C(C)c3nc4ccccc4c(=O)n3-c3ccccc3)c3ncnc(N)c23)c(F)c1F` (centres unmarked) [II-A-2, 2-(1-(4-amino-3-(2,3-difluoro-4-isopropoxyphenyl)-1H-pyrazolo[3,4-d]pyrimidin-1-yl)ethyl)-3-phenylquinazolin-4(3H)-one], the half-inhibitory concentration (IC50) stood at 145 nM in assay [1] and 234 nM in assay [2]. In addition, the “fold increase of inhibitory activity against CK1ε” value in assay [1] (compared to compound A) amounted to 12 fold. Turning to `CC(C)Oc1ccc(-c2nn([C@@H](C)c3nc4ccccc4c(=O)n3-c3ccccc3)c3ncnc(N)c23)c(F)c1F` [II-A-2a, (S)-2-(1-(4-amino-3-(2,3-difluoro-4-isopropoxyphenyl)-1H-pyrazolo[3,4-d]pyrimidin-1-yl)ethyl)-3-phenylquinazolin-4(3H)-one], inhibition in assay [1] was half-maximal at 88 nM (IC50). Take `CC(C)Oc1ccc(-c2nn([C@H](C)c3nc4ccccc4c(=O)n3-c3ccccc3)c3ncnc(N)c23)c(F)c1F` [II-A-2b, (R)-2-(1-(4-amino-3-(2,3-difluoro-4-isopropoxyphenyl)-1H-pyrazolo[3,4-d]pyrimidin-1-yl)ethyl)-3-phenylquinazolin-4(3H)-one]: half-maximal inhibition in assay [1] (IC50) was put at 450 nM. In assay [1], `CCOc1ccc(-c2nn(C(C)c3nc4ccccc4c(=O)n3-c3ccccc3)c3ncnc(N)c23)c(F)c1F` (centres unmarked) [II-A-3, 2-(1-(4-amino-3-(4-ethoxy-2,3-difluorophenyl)-1H-pyrazolo[3,4-d]pyrimidin-1-yl)ethyl)-3-phenylquinazolin-4(3H)-one] registered an IC50 of 232 nM. With `CC(c1nc2ccccc2c(=O)n1-c1ccccc1)n1nc(-c2ccc(OC3CC3)c(F)c2F)c2c(N)ncnc21` (centres unmarked) [II-A-4, 2-(1-(4-amino-3-(4-cyclopropoxy-2,3-difluorophenyl)-1H-pyrazolo[3,4-d]pyrimidin-1-yl)ethyl)-3-phenylquinazolin-4(3H)-one], the half-maximal inhibitory concentration (IC50) in assay [1] came to 234 nM. For the same compound, the “fold increase of inhibitory activity against CK1ε” value in assay [1] (compared to compound B) was 12 fold. In assay [1], `COc1ccc(-c2nn(C(C)c3nc4ccccc4c(=O)n3-c3ccccc3)c3ncnc(N)c23)c(F)c1Cl` (centres unmarked) [II-A-5, 2-(1-(4-amino-3-(3-chloro-2-fluoro-4-methoxyphenyl)-1H-pyrazolo[3,4-d]pyrimidin-1-yl)ethyl)-3-phenylquinazolin-4(3H)-one] showed an IC50 of 386 nM. Still for that read-out and setting: the value for `COc1ccc(-c2nn(C(C)c3nc4cccc(F)c4c(=O)n3-c3ccccc3)c3ncnc(N)c23)c(F)c1F` (centres unmarked) [II-A-8, 2-(1-(4-amino-3-(2,3-difluoro-4-methoxyphenyl)-1H-pyrazolo[3,4-d]pyrimidin−1-yl)ethyl)-5-fluoro-3-phenylquinazolin-4(3H)-one] was 118 nM; that for `COc1ccc(-c2nn([C@@H](C)c3nc4cccc(F)c4c(=O)n3-c3ccccc3)c3ncnc(N)c23)c(F)c1F` [II-A-8a, (S)-2-(1-(4-amino-3-(2,3-difluoro-4-methoxyphenyl)-1H-pyrazolo[3,4-d]pyrimidin-1-yl)ethyl)-5-fluoro-3-phenylquinazolin-4(3H)-one] was 60 nM; that for `COc1ccc(-c2nn(C(C)c3nc4ccc(F)cc4c(=O)n3-c3ccccc3)c3ncnc(N)c23)c(F)c1F` (centres unmarked) [II-A-9, 2-(1-(4-amino-3-(2,3-difluoro-4-methoxyphenyl)-1H-pyrazolo[3,4-d]pyrimidin-1-yl)ethyl)-6-fluoro-3-phenylquinazolin-4(3H)-one] was 100 nM. On to `COc1cc(F)c(-c2nn(C(C)c3nc4ccccc4c(=O)n3-c3ccccc3)c3ncnc(N)c23)c(F)c1` (centres unmarked) [II-A-12, 2-(1-(4-amino-3-(2,6-difluoro-4-methoxyphenyl)-1H-pyrazolo[3,4-d]pyrimidin-1-yl)ethyl)-3-phenylquinazolin-4(3H)-one], for which inhibition in assay [1] was half-maximal at 202 nM (IC50). As to `CC(C)Oc1ccc(-c2nn(C(C)c3nc4cccc(F)c4c(=O)n3-c3ccccc3)c3ncnc(N)c23)c(F)c1F` (centres unmarked) [II-A-16, 2-(1-(4-amino-3-(2,3-difluoro-4-isopropoxyphenyl)-1H-pyrazolo[3,4-d]pyrimidin-1-yl)ethyl)-5-fluoro-3-phenylquinazolin-4(3H)-one], inhibition in assay [1] was half-maximal at 100 nM (IC50). For the same compound, the results for the “fold increase of inhibitory activity against CK1ε” value in assay [1] (compared to CUX-031773) and in assay [1] (compared to compound D) were 93.6 fold and 12.9 fold, respectively.

As for `COc1ccc(-c2nn(C(C)c3nc4cccc(Cl)c4c(=O)n3-c3cccnc3)c3ncnc(N)c23)c(F)c1F` (centres unmarked) [II-B-2, 2-(1-(4-amino-3-(2,3-difluoro-4-methoxyphenyl)-1H-pyrazolo[3,4-d]pyrimidin-1-yl)ethyl)-5-chloro-3-(pyridin-3-yl)quinazolin-4(3H)-one], the figures for the IC50 in assay [1] and in assay [2] were 372 nM and 193 nM, respectively. Turning to `COc1ccc(-c2nn([C@@H](C)c3nc4cccc(Cl)c4c(=O)n3-c3cccnc3)c3ncnc(N)c23)c(F)c1F` [II-B-2a, (S)-2-(1-(4-amino-3-(2,3-difluoro-4-methoxyphenyl)-1H-pyrazolo[3,4-d]pyrimidin-1-yl)ethyl)-5-chloro-3-(pyridin-3-yl)quinazolin-4(3H)-one], the half-inhibitory concentration (IC50) in assay [1] was 202 nM.

Compound `COc1ccc(-c2nn(C(C)c3nc4cccc(Cl)c4c(=O)n3-c3cncc(F)c3)c3ncnc(N)c23)c(F)c1F` (centres unmarked) [II-B-3, 2-(1-(4-amino-3-(2,3-difluoro-4-methoxyphenyl)-1H-pyrazolo[3,4-d]pyrimidin-1-yl)ethyl)-5-chloro-3-(5-fluoropyridin-3-yl)quinazolin-4(3H)-one] had a 50% inhibitory concentration (IC50) in assay [1] of 89 nM. Consider `COc1ccc(-c2nn(C(C)c3nc4cccc(Cl)c4c(=O)n3N3CCCCC3)c3ncnc(N)c23)c(F)c1F` (centres unmarked) [II-C-5, 2-(1-(4-amino-3-(2,3-difluoro-4-methoxyphenyl)-1H-pyrazolo[3,4-d]pyrimidin-1-yl)ethyl)-5-chloro-3-(piperidin-1-yl)quinazolin-4(3H)-one], for which the IC50 in assay [1] came to 299 nM; in assay [2] it was 307 nM.
